{"source": "ChEMBL document CHEMBL1152845", "about": "“Synthesis, cytotoxicity and apoptosis of naphthalimide polyamine conjugates as antitumor agents” (Eur J Med Chem, 2009)", "key": {"[1]": {"system": "B16", "assay": "Cytotoxicity against mouse B16 cells after 48 hrs by MTT assay", "assay_type": "functional, cell-based", "conditions": "B16, 48 h"}, "[2]": {"system": "CHO", "assay": "Cytotoxicity against CHO cells after 48 hrs by MTT assay", "assay_type": "cell-based", "conditions": "Cricetulus griseus"}, "[3]": {"system": "K562", "assay": "Cytotoxicity against human K562 cells after 48 hrs by MTT assay", "assay_type": "functional, cell-based", "conditions": "K562, 48 h"}, "[4]": {"system": "Bel-7402", "assay": "Cytotoxicity against human Bel7402 cells after 48 hrs by MTT assay", "assay_type": "functional, cell-based", "conditions": "Bel-7402, 48 h"}, "[5]": {"assay": "Cytotoxicity against human QSG7701 cells after 48 hrs by MTT assay", "assay_type": "cell-based", "conditions": "QSG7701, 48 h"}, "[6]": {"system": "B16", "assay": "Cell cycle arrest in mouse B16 cells by accumulation at S phase at 2.0 uM after 48 hrs by flow cytometry", "assay_type": "functional"}, "[7]": {"system": "B16", "assay": "Cell cycle arrest in mouse B16 cells by accumulation at S phase at 0.5 uM after 48 hrs by flow cytometry", "assay_type": "functional"}, "[8]": {"system": "B16", "assay": "Cell cycle arrest in mouse B16 cells by accumulation at G0/G1 phase at 2.0 uM after 48 hrs by flow cytometry", "assay_type": "functional"}, "[9]": {"system": "B16", "assay": "Cell cycle arrest in mouse B16 cells by accumulation at S phase at 1.0 uM after 48 hrs by flow cytometry", "assay_type": "functional"}, "[10]": {"system": "B16", "assay": "Cell cycle arrest in mouse B16 cells by accumulation at G0/G1 phase at 0.5 uM after 48 hrs by flow cytometry", "assay_type": "functional"}, "[11]": {"system": "B16", "assay": "Induction of apoptosis in mouse B16 cells assessed as increase in caspase-3 cleavage after 48 hrs by Western blot relative to control", "assay_type": "functional, cell-based"}, "[12]": {"system": "B16", "assay": "Induction of apoptosis in mouse B16 cells assessed as increase in mitochondrial cytochrome-C release after 48 hrs by Western blot relative to control", "assay_type": "functional, cell-based"}, "[13]": {"system": "B16", "assay": "Cell cycle arrest in mouse B16 cells by accumulation at G2/M phase at 1.0 uM after 48 hrs by flow cytometry", "assay_type": "functional"}, "[14]": {"system": "B16", "assay": "Cell cycle arrest in mouse B16 cells by accumulation at G2/M phase at 2.0 uM after 48 hrs by flow cytometry", "assay_type": "functional"}, "[15]": {"system": "B16", "assay": "Cell cycle arrest in mouse B16 cells by accumulation at G0/G1 phase at 1.0 uM after 48 hrs by flow cytometry", "assay_type": "functional"}, "[16]": {"system": "B16", "assay": "Induction of apoptosis in mouse B16 cells assessed as sub-G1 DNA content at 1.0 uM after 48 hrs by flow cytometry", "assay_type": "functional"}, "[17]": {"system": "B16", "assay": "Induction of apoptosis in mouse B16 cells assessed as reduction in Bcl2 level after 48 hrs by Western blot relative to control", "assay_type": "functional, cell-based"}, "[18]": {"system": "B16", "assay": "Induction of apoptosis in mouse B16 cells assessed as sub-G1 DNA content at 0.5 uM after 48 hrs by flow cytometry", "assay_type": "functional"}, "[19]": {"system": "B16", "assay": "Cell cycle arrest in mouse B16 cells by accumulation at G2/M phase at 0.5 uM after 48 hrs by flow cytometry", "assay_type": "functional"}, "[20]": {"system": "B16", "assay": "Induction of apoptosis in mouse B16 cells assessed as increase in Bax level after 48 hrs by Western blot relative to control", "assay_type": "functional, cell-based"}, "[21]": {"system": "B16", "assay": "Induction of apoptosis in mouse B16 cells assessed as increase in caspase-9 cleavage after 48 hrs by Western blot relative to control", "assay_type": "functional, cell-based"}, "[22]": {"system": "B16", "assay": "Induction of apoptosis in mouse B16 cells assessed as increase in caspase-8 cleavage after 48 hrs by Western blot relative to control", "assay_type": "functional, cell-based"}, "[23]": {"system": "Calf thymus DNA", "assay": "Binding affinity to calf thymus DNA at 80 uM by spectrophotometry", "assay_type": "nucleic-acid assay", "conditions": "Bos taurus"}, "[24]": {"system": "B16", "assay": "Induction of apoptosis in mouse B16 cells assessed as sub-G1 DNA content at 2.0 uM after 48 hrs by flow cytometry", "assay_type": "functional"}, "[25]": {"assay": "Cytotoxicity against mouse Mel-A cells after 48 hrs by MTT assay", "assay_type": "cell-based"}}, "note": "Active and inactive are the calls of the source. No cut-off for these calls is given here."}
{"compound": "NCCCNCCCCNCCCCN1C(=O)c2cccc3cccc(c23)C1=O", "values": [{"measurement": "IC50", "setting": "[1]", "value": 2.7, "unit": "µM"}, {"measurement": "IC50", "setting": "[2]", "value": 3.43, "unit": "µM"}, {"measurement": "IC50", "setting": "[3]", "value": 3.84, "unit": "µM"}]}
{"compound": "NCCCNCCCCNCCCN1C(=O)c2cccc3cccc(c23)C1=O", "values": [{"measurement": "IC50", "setting": "[1]", "value": 0.62, "unit": "µM"}, {"measurement": "IC50", "setting": "[4]", "value": 1.06, "unit": "µM"}, {"measurement": "IC50", "setting": "[2]", "value": 1.21, "unit": "µM"}, {"measurement": "IC50", "setting": "[3]", "value": 1.64, "unit": "µM"}, {"measurement": "IC50", "setting": "[5]", "value": "> 50", "unit": "µM"}]}
{"compound": "Cl.NCCCCNCCCCNCCCCN1C(=O)c2cccc3cccc(c23)C1=O", "values": [{"measurement": "IC50", "setting": "[1]", "value": 0.69, "unit": "µM"}, {"measurement": "IC50", "setting": "[4]", "value": 3.56, "unit": "µM"}, {"measurement": "Activity", "setting": "[6]", "value": 7.34, "unit": "%"}, {"measurement": "Activity", "setting": "[7]", "value": 11.7, "unit": "%"}, {"measurement": "Activity", "setting": "[8]", "value": 58.47, "unit": "%"}, {"measurement": "Activity", "setting": "[9]", "value": 9.71, "unit": "%"}, {"measurement": "Activity", "setting": "[10]", "value": 69.78, "unit": "%"}, {"measurement": "Activity", "setting": "[11]", "value": "Dose-dependent effect"}, {"measurement": "IC50", "setting": "[2]", "value": 2.58, "unit": "µM"}, {"measurement": "Activity", "setting": "[12]", "value": "Active"}, {"measurement": "IC50", "setting": "[3]", "value": 1.16, "unit": "µM"}, {"measurement": "Activity", "setting": "[13]", "value": 24.91, "unit": "%"}, {"measurement": "Activity", "setting": "[14]", "value": 34.19, "unit": "%"}, {"measurement": "Activity", "setting": "[15]", "value": 65.38, "unit": "%"}, {"measurement": "Activity", "setting": "[16]", "value": 16.84, "unit": "%"}, {"measurement": "Activity", "setting": "[17]", "value": "Active"}, {"measurement": "Activity", "setting": "[18]", "value": 9.68, "unit": "%"}, {"measurement": "Activity", "setting": "[19]", "value": 18.52, "unit": "%"}, {"measurement": "Activity", "setting": "[20]", "value": "Active"}, {"measurement": "Activity", "setting": "[21]", "value": "Dose-dependent effect"}, {"measurement": "Activity", "setting": "[22]", "value": "Dose-dependent effect"}, {"measurement": "IC50", "setting": "[5]", "value": "> 50", "unit": "µM"}, {"measurement": "Activity", "setting": "[23]", "value": "Active"}, {"measurement": "Activity", "setting": "[24]", "value": 38.63, "unit": "%"}]}
{"compound": "NCCCCNCCCCNCc1c2ccccc2cc2ccccc12", "values": [{"measurement": "IC50", "setting": "[1]", "value": 1.4, "unit": "µM"}, {"measurement": "IC50", "setting": "[25]", "value": 8.3, "unit": "µM"}, {"measurement": "IC50", "setting": "[2]", "value": 1.25, "unit": "µM"}, {"measurement": "IC50", "setting": "[3]", "value": 0.95, "unit": "µM"}]}
{"compound": "NCCCNCCCCN1C(=O)c2cccc3cccc(c23)C1=O", "values": [{"measurement": "IC50", "setting": "[1]", "value": 13.9, "unit": "µM"}, {"measurement": "IC50", "setting": "[2]", "value": 20.7, "unit": "µM"}, {"measurement": "IC50", "setting": "[3]", "value": 11.4, "unit": "µM"}]}
{"compound": "O=C1NC(=O)c2cccc3cccc1c23", "values": [{"measurement": "IC50", "setting": "[1]", "value": "> 50", "unit": "µM"}, {"measurement": "IC50", "setting": "[2]", "value": "> 50", "unit": "µM"}, {"measurement": "IC50", "setting": "[3]", "value": "> 50", "unit": "µM"}]}
{"compound": "NCCCCNCCCCNCCCN1C(=O)c2cccc3cccc(c23)C1=O", "values": [{"measurement": "IC50", "setting": "[1]", "value": 5.36, "unit": "µM"}, {"measurement": "IC50", "setting": "[2]", "value": 9.09, "unit": "µM"}, {"measurement": "IC50", "setting": "[3]", "value": 9.08, "unit": "µM"}]}
